Reference: patent US9586928B2 (The Scripps Research Institute, priority 2011, dated 2017)

Tests used:
Assay type in all cases: cell-based
Conditions in all cases: 10 μM
RORα = target: T1, RORα (Homo sapiens, UniProt P35398); assay: Gal4-RORα LBD / UAS luciferase cotransfection assay
T1 construct: expressed in transfected cells; host or cells: HEK293T
T1 sequence (P35398 272-510 limits assumed): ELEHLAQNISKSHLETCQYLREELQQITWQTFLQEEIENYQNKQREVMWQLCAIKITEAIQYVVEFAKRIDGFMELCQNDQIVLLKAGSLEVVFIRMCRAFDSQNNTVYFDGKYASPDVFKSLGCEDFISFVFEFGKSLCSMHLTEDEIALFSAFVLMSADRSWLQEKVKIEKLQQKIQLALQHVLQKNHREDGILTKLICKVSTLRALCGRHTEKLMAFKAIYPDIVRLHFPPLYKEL
Experimental: (§1) The cells were treated with either DMSO or various compounds as indicated four hours after replating. Following additional 20 hour incubation, luciferase levels were assayed by one-step addition of 20 μL BriteLite (Perkin Elmer) and read using an Envision multilabel plate reader (Perkin Elmer).
Cotransfection assays were performed as previously described in HEK293 cells (Gal4 cotransfection assay or IL-17 luciferase reporter)[8]. HEK293 and the mouse lymphoma EL4 (ATCC) cells were maintained in DMEM supplemented with 10% FBS plus antibiotics (penicillin and streptomycin; Invitrogen).

VP16 = assay: Gal4 DBD-VP16 / UAS luciferase control assay
Experimental: as §1

RORγ = target: T2, RORγ (Homo sapiens, UniProt P51449); assay: Gal4-RORγ LBD / UAS luciferase cotransfection assay
T2 construct: expressed in transfected cells; host or cells: HEK293T
T2 sequence (P51449 269-508 limits assumed): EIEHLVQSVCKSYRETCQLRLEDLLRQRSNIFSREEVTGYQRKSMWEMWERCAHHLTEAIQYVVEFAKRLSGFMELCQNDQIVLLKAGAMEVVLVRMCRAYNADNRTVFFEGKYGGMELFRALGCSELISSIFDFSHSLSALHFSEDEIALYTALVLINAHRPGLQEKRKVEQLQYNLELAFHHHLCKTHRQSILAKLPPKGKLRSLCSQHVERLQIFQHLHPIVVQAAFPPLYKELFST

LXR = target: T3, LXR (Homo sapiens, UniProt Q13133); assay: Gal4-LXRα / UAS luciferase cotransfection assay
T3 sequence (Q13133 209-447 limits assumed): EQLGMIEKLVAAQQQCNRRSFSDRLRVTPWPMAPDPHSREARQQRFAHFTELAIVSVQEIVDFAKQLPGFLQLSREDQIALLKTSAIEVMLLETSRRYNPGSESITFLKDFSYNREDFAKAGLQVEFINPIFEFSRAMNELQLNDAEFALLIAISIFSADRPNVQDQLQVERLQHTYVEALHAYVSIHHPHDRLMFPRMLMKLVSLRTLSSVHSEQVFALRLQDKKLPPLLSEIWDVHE

SMILES | RORα repression, fold change over DMSO (RORα) | VP16 repression, fold change over DMSO (VP16) | RORγ repression, fold change over DMSO (RORγ) | LXR activation, fold change over DMSO (LXR)
CCC(=O)N1CCN(Cc2ccc(-c3ccc(C(O)(C(F)(F)F)C(F)(F)F)cc3)cc2)CC1 [Compound 25, 1-(4-((4′-(1,1,1,3,3,3-Hexafluoro-2-hydroxypropan-2-yl)-[1,1′-biphenyl]-4-yl)methyl)piperazin-1-yl)propan-1-one] | 0.7 fold change over DMSO | 0.5 fold change over DMSO | 0.45 fold change over DMSO | 1 fold change over DMSO
O=C(c1ccccc1)N1CCN(Cc2ccc(-c3ccc(C(O)(C(F)(F)F)C(F)(F)F)cc3)cc2)CC1 [Compound 26, (4-((4′-(1,1,1,3,3,3-Hexafluoro-2-hydroxypropan-2-yl)-[1,1′-biphenyl]-4-yl)methyl)piperazin-1-yl)(phenyl)methanone] | 0.9 fold change over DMSO | 0.7 fold change over DMSO | 0.8 fold change over DMSO | 2 fold change over DMSO
O=C(Cc1ccccc1)N1CCN(Cc2ccc(-c3ccc(C(O)(C(F)(F)F)C(F)(F)F)cc3)cc2)CC1 [Compound 27, 1-(4-((4′-(1,1,1,3,3,3-Hexafluoro-2-hydroxypropan-2-yl)-[1,1′-biphenyl]-4-yl)methyl)piperazin-1-yl)-2-phenylethanone] | 0.5 fold change over DMSO | 0.3 fold change over DMSO | 0.25 fold change over DMSO | 0.8 fold change over DMSO
CS(=O)(=O)N1CCN(Cc2ccc(-c3ccc(C(O)(C(F)(F)F)C(F)(F)F)cc3)cc2)CC1 [Compound 28, 1,1,1,3,3,3-Hexafluoro-2-(4′-((4-(methylsulfonyl)piperazin-1-yl)methyl)-[1,1′-biphenyl]-4-yl)propan-2-ol] | 1.1 fold change over DMSO | 0.75 fold change over DMSO | 0.5 fold change over DMSO | 1.5 fold change over DMSO
O=S(=O)(c1ccccc1)N1CCN(Cc2ccc(-c3ccc(C(O)(C(F)(F)F)C(F)(F)F)cc3)cc2)CC1 [Compound 29, 1,1,1,3,3,3-Hexafluoro-2-(4′-((4-(phenylsulfonyl)piperazin-1-yl)methyl)-[1,1′-biphenyl]-4-yl)propan-2-ol] | 1 fold change over DMSO | 0.8 fold change over DMSO | 0.8 fold change over DMSO | 1.8 fold change over DMSO
O=S(=O)(Cc1ccccc1)N1CCN(Cc2ccc(-c3ccc(C(O)(C(F)(F)F)C(F)(F)F)cc3)cc2)CC1 [Compound 30, 2-(4′-((4-(Benzylsulfonyl)piperazin-1-yl)methyl)-[1,1′-biphenyl]-4-yl)-1,1,1,3,3,3-hexafluoropropan-2-ol] | 1 fold change over DMSO | 0.75 fold change over DMSO | 0.75 fold change over DMSO | 2 fold change over DMSO
OC(c1ccc(-c2ccc(CN3CCN(Cc4ccnc(Br)c4)CC3)cc2)cc1)(C(F)(F)F)C(F)(F)F [Compound 40, 2-(4′-((4-((2-Bromopyridin-4-yl)methyl)piperazin-1-yl)methyl)-[1,1′-biphenyl]-4-yl)-1,1,1,3,3,3-hexafluoropropan-2-ol] | 0.1 fold change over DMSO | 0.05 fold change over DMSO | 0.05 fold change over DMSO | 1 fold change over DMSO
OC(c1ccc(-c2ccc(CN3CCN(CCc4ccncc4)CC3)cc2)cc1)(C(F)(F)F)C(F)(F)F [Compound 41, 1,1,1,3,3,3-Hexafluoro-2-(4′-((4-(2-(pyridin-4-yl)ethyl)piperazin-1-yl)methyl)-[1,1′-biphenyl]-4-yl)propan-2-ol] | 0.5 fold change over DMSO | 0.3 fold change over DMSO | 0.3 fold change over DMSO | 1 fold change over DMSO
OC(c1ccc(-c2ccc(CN3CCN(Cc4nc5ccccc5s4)CC3)cc2)cc1)(C(F)(F)F)C(F)(F)F [Compound 42, 2-(4′-((4-(Benzo[d]thiazol-2-ylmethyl)piperazin-1-yl)methyl)-[1,1′-biphenyl]-4-yl)-1,1,1,3,3,3-hexafluoropropan-2-ol] | 0.4 fold change over DMSO | 0.1 fold change over DMSO | 0.2 fold change over DMSO | 1 fold change over DMSO
Cc1cc(CN2CCN(Cc3ccc(-c4ccc(C(O)(C(F)(F)F)C(F)(F)F)cc4)cc3)CC2)ccn1 [Compound 43, 1,1,1,3,3,3-Hexafluoro-2-(4′-((4-((2-methylpyridin-4-yl)methyl)piperazin-1-yl)methyl)-[1,1′-biphenyl]-4-yl)propan-2-ol] | 0.6 fold change over DMSO | 0.6 fold change over DMSO | 0.1 fold change over DMSO | 1 fold change over DMSO
OC(c1ccc(-c2ccc(CN3CCN(c4ccncc4)CC3)cc2)cc1)(C(F)(F)F)C(F)(F)F [Compound 44, 1,1,1,3,3,3-Hexafluoro-2-(4′-((4-(pyridin-4-yl)piperazin-1-yl)methyl)-[1,1′-biphenyl]-4-yl)propan-2-ol] | 0.5 fold change over DMSO | 0.3 fold change over DMSO | 0.4 fold change over DMSO | 1 fold change over DMSO
OC(c1ccc(-c2ccc(CN3CCN(Cc4ccncc4)CC3)c(Cl)c2)cc1)(C(F)(F)F)C(F)(F)F [Compound 93, 2-(3′-Chloro-4′-((4-(pyridin-4-ylmethyl)piperazin-1-yl)methyl)-[1,1′-biphenyl]-4-yl)-1,1,1,3,3,3-hexafluoropropan-2-ol] | 0.4 fold change over DMSO | 0.7 fold change over DMSO | 0.05 fold change over DMSO | 1.5 fold change over DMSO
